According to patent publication US10966426B2, “Herbicidal compositions comprising phenylpyrimidines” (BASF SE, priority 2016, dated 2021):

How the values were obtained:
Assay type in all cases: in vivo
Papaver rhoeas = test: greenhouse post-emergence treatment, PAPRH; conditions: Papaver rhoeas, 480 h, PAPRH, 20 DAT
Method: (§1) The culture containers used were plastic pots containing loamy sand with approximately 3.0% of humus as substrate. The seeds of the test plants were sown separately for each species.
(§2) For the post-emergence treatment, the test plants were grown to a plant height of from 3 to 15 cm, depending on the plant habit, and only then treated with the active compounds which had been suspended or emulsified in water. To this end, the test plants were either sown directly, and grown in the same containers, or they were first grown separately as seedlings and transplanted into the test containers a few days prior to treatment.
(§3) Depending on the species, the plants were kept at 10-25° C. and 20-35° C., respectively.
(§4) The test period extended over 2 to 4 weeks. During this time, the plants were tended and their response to the individual treatments was evaluated.
(§5) Evaluation was carried out using a scale from 0 to 100. 100 means no emergence of the plants, or complete destruction of at least the above-ground parts, and 0 means no damage or normal course of growth. A good herbicidal activity is given at values of at least 70, and very good herbicidal activity is given at values of at least 85.
(§6) The respective stated components A and B, and if appropriate, C were formulated as a 10% by weight strength emulsion concentrate and, with addition of the amount of solvent system, introduced into the spray liquor used for applying the active compound. In the examples, the solvent used was water.
(§7) In the examples below, using the method of S. R. Colby (1967) “Calculating synergistic and antagonistic responses of herbicide combinations”, Weeds 15, p. 22ff., the value E, which is expected if the activity of the individual active compounds is only additive, was calculated. E=X+Y−(X·Y/100) where X=effect in percent using herbicide A at an application rate a; • Y=effect in percent using herbicide B at application rate b; • E=expected effect (in %) of herbicide A+herbicide B at application rates a+b.

Brachiaria decumbens = test: greenhouse post-emergence treatment, BRADC; conditions: for inhibition at 500000 µg/mL (stock): sc, 504 h, 21 DAT
Method: as §1, §2, §3, §4, §5, §6, §7

Polygonum convolvulus = test: greenhouse post-emergence treatment, POLCO; conditions: Fallopia convolvulus; for inhibition at 500000 µg/mL (stock): sc, 504 h, POLCO, 21 DAT
Method: as §1, §2, §3, §4, §5, §6, §7

Polygonum aviculare = test: greenhouse post-emergence treatment, POLAV; conditions: POLAV
Method: as §1, §2, §3, §4, §5, §6, §7

Poa annua = test: greenhouse post-emergence treatment, POAAN; conditions: Poa annua
Method: as §1, §2, §3, §4, §5, §6, §7

Lolium multiflorum = test: greenhouse post-emergence treatment, LOLMU; conditions: Lolium multiflorum, LOLMU; for inhibition at 500000 µg/mL (stock): sc, 504 h, 21 DAT
Method: as §1
(§8) To this end, the test plants were either sown directly, and grown in the same containers, or they were first grown separately as seedlings and transplanted into the test containers a few days prior to treatment.
as §3, §4, §5
(§9) In the examples, the solvent used was water.
(§10) In the examples below, using the method of S. R. Colby (1967) “Calculating synergistic and antagonistic responses of herbicide combinations”, Weeds 15, p. […] E=X+Y−(X·Y/100) where X=effect in percent using herbicide A at an application rate a; • Y=effect in percent using herbicide B at application rate b; • E=expected effect (in %) of herbicide A+herbicide B at application rates a+b.

Matricaria chamomilla = test: greenhouse post-emergence treatment, MATCH; conditions: Matricaria chamomilla; for inhibition at 500000 µg/mL (stock): sc, 504 h, MATCH, 21 DAT
Method: as §1, §2, §3, §4, §5, §6, §7

Avena fatua = test: greenhouse post-emergence treatment, AVEFA; conditions: Avena fatua, AVEFA; for pest or weed control at 12.5 g/ha: 480 h, 20 DAT; for inhibition at 500000 µg/mL (stock): sc, 504 h, 21 DAT
Method: as §1, §8, §3, §4, §5, §9, §10

Bromus sterilis = test: greenhouse post-emergence treatment, BROST
Method: as §1, §8, §3, §4, §5, §9, §10

Galium aparine = test: greenhouse post-emergence treatment, GALAP; conditions: Galium aparine, 504 h, GALAP, 21 DAT, solo metazachlor (SC 500 g/l) 250 gai/ha
Method: as §1, §2, §3, §4, §5, §6, §7

Digitaria sanguinalis = test: greenhouse post-emergence treatment, DIGSA; conditions: Digitaria sanguinalis, sc, 504 h, DIGSA, 21 DAT
Method: as §1, §8, §3, §4, §5, §9, §10

Stellaria media = test: greenhouse post-emergence treatment, STEME; conditions: Stellaria media, sc, 504 h, STEME, 21 DAT
Method: as §1, §2, §3, §4, §5, §6, §7

Setaria viridis = test: greenhouse post-emergence treatment, SETVI; conditions: Setaria viridis, sc, 504 h, SETVI, 21 DAT, solo metazachlor (SC 500 g/l) 31.25 gai/ha
Method: as §1, §8, §3, §4, §5, §9, §10

[1] = solo cycloxydim (EC 100 g/l) 12.5 gai/ha
[2] = solo metazachlor (SC 500 g/l) 31.25 gai/ha
[3] = solo metazachlor (SC 500 g/l) 62.5 gai/ha
[4] = solo metazachlor (SC 500 g/l) 125 gai/ha
[5] = solo metazachlor (SC 500 g/l) 250 gai/ha

Question: With `CCCC(=NOCC)C1=C(O)CC(C2CCCSC2)CC1=O` (centres unmarked) [cycloxydim] as the molecule, how does the pest or weed control at 12.5 g/ha (Papaver rhoeas; [1]) read?
Answer: 0%

Question: What about the pest or weed control at 100 g/ha (Papaver rhoeas; solo cycloxydim (EC 100 g/l) 100 gai/ha) of the same molecule?
Answer: 0%

Question: What about the “% activity” value (Brachiaria decumbens; BRADC, 20 DAT, solo cycloxydim (EC 100 g/l) 12.5 gai/ha) of the same molecule?
Answer: 65%

Question: What about the pest or weed control at 12.5 g/ha (Brachiaria decumbens; Urochloa decumbens, 480 h) of the same molecule?
Answer: 65%

Question: What about the pest or weed control at 12.5 g/ha (Polygonum convolvulus; 480 h) of the same molecule?
Answer: 0%

Question: And the pest or weed control at 25 g/ha (Polygonum convolvulus; 480 h)?
Answer: 0%

Question: What about the pest or weed control at 50 g/ha (Polygonum convolvulus; 480 h) of the same molecule?
Answer: 0%

Question: What about the pest or weed control at 100 g/ha (Polygonum convolvulus; 480 h) of the same molecule?
Answer: 0%

Question: What about the “% activity” value (Polygonum aviculare; 20 DAT, solo cycloxydim (EC 100 g/l) 12.5 gai/ha) of the same molecule?
Answer: 0%

Question: And the “% activity” value (Polygonum aviculare; 20 DAT, solo cycloxydim (EC 100 g/l) 25 gai/ha)?
Answer: 0%

Question: And the “% activity” value (Polygonum aviculare; 20 DAT, solo cycloxydim (EC 100 g/l) 50 gai/ha)?
Answer: 0%

Question: What about the “% activity” value (Polygonum aviculare; 20 DAT, solo cycloxydim (EC 100 g/l) 100 gai/ha) of the same molecule?
Answer: 0%

Question: And the “% activity” value (Polygonum aviculare; cycloxydim solo (EC 100 g/l), 12.5 gai/ha, 20 DAT)?
Answer: 0%

Question: What about the “% activity” value (Polygonum aviculare; cycloxydim solo (EC 100 g/l), 25 gai/ha, 20 DAT) of the same molecule?
Answer: 0%

Question: And the “% activity” value (Polygonum aviculare; cycloxydim solo (EC 100 g/l), 100 gai/ha, 20 DAT)?
Answer: 0%

Question: What about the pest or weed control at 12.5 g/ha (Poa annua; 480 h) of the same molecule?
Answer: 0%

Question: What about the pest or weed control at 25 g/ha (Poa annua; 480 h) of the same molecule?
Answer: 0%

Question: What about the pest or weed control at 50 g/ha (Poa annua; 480 h) of the same molecule?
Answer: 0%

Question: And the pest or weed control at 100 g/ha (Poa annua; 480 h)?
Answer: 0%

Question: And the pest or weed control at 12.5 g/ha (Lolium multiflorum; 480 h, cycloxydim solo (EC 100 g/l), 12.5 gai/ha, 20 DAT)?
Answer: 90%

Question: What about the pest or weed control at 12.5 g/ha (Matricaria chamomilla; 480 h) of the same molecule?
Answer: 0%

Question: And the pest or weed control at 25 g/ha (Matricaria chamomilla; 480 h)?
Answer: 0%

Question: What about the pest or weed control at 50 g/ha (Matricaria chamomilla; 480 h) of the same molecule?
Answer: 0%

Question: What about the pest or weed control at 100 g/ha (Matricaria chamomilla; 480 h) of the same molecule?
Answer: 0%

Question: And the pest or weed control at 12.5 g/ha (Avena fatua; [1])?
Answer: 20%

Question: And the pest or weed control at 12.5 g/ha (Avena fatua; cycloxydim solo (EC 100 g/l), 12.5 gai/ha)?
Answer: 20%

Question: What about the “% activity” value (Bromus sterilis; BROST, 20 DAT, solo cycloxydim (EC 100 g/l) 12.5 gai/ha) of the same molecule?
Answer: 25%

Question: And the pest or weed control at 12.5 g/ha (Bromus sterilis; Bromus sterilis, 480 h)?
Answer: 25%

Question: Which inhibition at 500000 µg/mL (stock) (Galium aparine) does the source give for `Cc1cccc(C)c1N(Cn1cccn1)C(=O)CCl` [metazachlor] here?
Answer: 85%

Question: And the inhibition at 500000 µg/mL (stock) (Brachiaria decumbens; Urochloa decumbens, BRADC, solo metazachlor (SC 500 g/l) 31.25 gai/ha)?
Answer: 10%

Question: What about the inhibition at 500000 µg/mL (stock) (Brachiaria decumbens; Urochloa decumbens, BRADC, solo metazachlor (SC 500 g/l) 62.5 gai/ha) of the same molecule?
Answer: 20%

Question: And the inhibition at 500000 µg/mL (stock) (Brachiaria decumbens; Urochloa decumbens, BRADC, solo metazachlor (SC 500 g/l) 125 gai/ha)?
Answer: 25%

Question: What about the inhibition at 500000 µg/mL (stock) (Brachiaria decumbens; Urochloa decumbens, BRADC, solo metazachlor (SC 500 g/l) 250 gai/ha) of the same molecule?
Answer: 60%

Question: What about the inhibition at 500000 µg/mL (stock) (Polygonum convolvulus; [2]) of the same molecule?
Answer: 0%

Question: And the inhibition at 500000 µg/mL (stock) (Polygonum convolvulus; [3])?
Answer: 0%

Question: What about the inhibition at 500000 µg/mL (stock) (Polygonum convolvulus; [4]) of the same molecule?
Answer: 10%

Question: And the inhibition at 500000 µg/mL (stock) (Polygonum convolvulus; [5])?
Answer: 20%

Question: And the inhibition at 500000 µg/mL (stock) (Polygonum aviculare; Polygonum aviculare, 504 h, 21 DAT, solo metazachlor (SC 500 g/l) 125 gai/ha)?
Answer: 25%

Question: What about the “% activity” value (Polygonum aviculare; metazachlor solo (SC 500 g/l), 31.25 gai/ha, 21 DAT) of the same molecule?
Answer: 20%

Question: And the inhibition at 500000 µg/mL (stock) (Poa annua; 504 h, POAAN, 21 DAT, solo metazachlor (SC 500 g/l) 250 gai/ha)?
Answer: 85%

Question: And the inhibition at 500000 µg/mL (stock) (Digitaria sanguinalis; [2])?
Answer: 0%

Question: And the inhibition at 500000 µg/mL (stock) (Digitaria sanguinalis; [5])?
Answer: 75%

Question: What about the inhibition at 500000 µg/mL (stock) (Lolium multiflorum; [2]) of the same molecule?
Answer: 30%

Question: And the inhibition at 500000 µg/mL (stock) (Lolium multiflorum; [4])?
Answer: 85%

Question: What about the inhibition at 500000 µg/mL (stock) (Lolium multiflorum; [5]) of the same molecule?
Answer: 85%

Question: What about the inhibition at 500000 µg/mL (stock) (Matricaria chamomilla; [2]) of the same molecule?
Answer: 0%

Question: And the inhibition at 500000 µg/mL (stock) (Matricaria chamomilla; [3])?
Answer: 0%

Question: And the inhibition at 500000 µg/mL (stock) (Matricaria chamomilla; [5])?
Answer: 20%

Question: What about the inhibition at 500000 µg/mL (stock) (Stellaria media; [2]) of the same molecule?
Answer: 0%

Question: And the inhibition at 500000 µg/mL (stock) (Stellaria media; [3])?
Answer: 0%

Question: And the inhibition at 500000 µg/mL (stock) (Stellaria media; [4])?
Answer: 25%

Question: And the inhibition at 500000 µg/mL (stock) (Stellaria media; [5])?
Answer: 35%

Question: What about the inhibition at 500000 µg/mL (stock) (Avena fatua; [3]) of the same molecule?
Answer: 10%

Question: What about the inhibition at 500000 µg/mL (stock) (Avena fatua; [4]) of the same molecule?
Answer: 0%

Question: What about the inhibition at 500000 µg/mL (stock) (Avena fatua; [5]) of the same molecule?
Answer: 10%

Question: What about the inhibition at 500000 µg/mL (stock) (Setaria viridis) of the same molecule?
Answer: 65%
